Assay [1] addresses Integrin alpha-IIb/beta-3 (Homo sapiens, UniProt P05106+P08514). Briefly: Inhibition of [125I]- Fg binding to fibrinogen receptor of activated human platelets.
Assay [2] is filed under the species Homo sapiens. Nature of the assay: Evaluated for human platelet aggregation. In kind it is functional.

Integrin alpha-IIb/beta-3, sequence (P05106 27-788 limits assumed): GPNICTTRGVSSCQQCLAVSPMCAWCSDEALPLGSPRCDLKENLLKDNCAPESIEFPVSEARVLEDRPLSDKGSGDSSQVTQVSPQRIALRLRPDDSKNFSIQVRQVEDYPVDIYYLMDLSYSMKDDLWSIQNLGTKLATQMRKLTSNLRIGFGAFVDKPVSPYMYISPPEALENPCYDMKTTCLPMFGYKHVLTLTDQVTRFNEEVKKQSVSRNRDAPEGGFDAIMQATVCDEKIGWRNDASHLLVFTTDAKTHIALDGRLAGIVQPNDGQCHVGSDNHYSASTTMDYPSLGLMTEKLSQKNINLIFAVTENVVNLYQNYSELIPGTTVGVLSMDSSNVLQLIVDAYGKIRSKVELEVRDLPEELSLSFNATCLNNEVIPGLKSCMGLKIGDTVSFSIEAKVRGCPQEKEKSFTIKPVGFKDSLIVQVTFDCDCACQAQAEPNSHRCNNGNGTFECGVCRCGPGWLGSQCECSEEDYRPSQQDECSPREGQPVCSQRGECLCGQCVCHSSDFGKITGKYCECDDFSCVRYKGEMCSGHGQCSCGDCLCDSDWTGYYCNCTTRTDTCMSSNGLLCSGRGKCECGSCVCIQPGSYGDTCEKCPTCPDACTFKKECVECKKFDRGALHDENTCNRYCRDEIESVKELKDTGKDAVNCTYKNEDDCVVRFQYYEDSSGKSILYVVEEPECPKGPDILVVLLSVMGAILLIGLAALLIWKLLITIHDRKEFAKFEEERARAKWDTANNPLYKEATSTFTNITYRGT
Integrin alpha-IIb/beta-3, sequence (P08514 32-887 limits assumed): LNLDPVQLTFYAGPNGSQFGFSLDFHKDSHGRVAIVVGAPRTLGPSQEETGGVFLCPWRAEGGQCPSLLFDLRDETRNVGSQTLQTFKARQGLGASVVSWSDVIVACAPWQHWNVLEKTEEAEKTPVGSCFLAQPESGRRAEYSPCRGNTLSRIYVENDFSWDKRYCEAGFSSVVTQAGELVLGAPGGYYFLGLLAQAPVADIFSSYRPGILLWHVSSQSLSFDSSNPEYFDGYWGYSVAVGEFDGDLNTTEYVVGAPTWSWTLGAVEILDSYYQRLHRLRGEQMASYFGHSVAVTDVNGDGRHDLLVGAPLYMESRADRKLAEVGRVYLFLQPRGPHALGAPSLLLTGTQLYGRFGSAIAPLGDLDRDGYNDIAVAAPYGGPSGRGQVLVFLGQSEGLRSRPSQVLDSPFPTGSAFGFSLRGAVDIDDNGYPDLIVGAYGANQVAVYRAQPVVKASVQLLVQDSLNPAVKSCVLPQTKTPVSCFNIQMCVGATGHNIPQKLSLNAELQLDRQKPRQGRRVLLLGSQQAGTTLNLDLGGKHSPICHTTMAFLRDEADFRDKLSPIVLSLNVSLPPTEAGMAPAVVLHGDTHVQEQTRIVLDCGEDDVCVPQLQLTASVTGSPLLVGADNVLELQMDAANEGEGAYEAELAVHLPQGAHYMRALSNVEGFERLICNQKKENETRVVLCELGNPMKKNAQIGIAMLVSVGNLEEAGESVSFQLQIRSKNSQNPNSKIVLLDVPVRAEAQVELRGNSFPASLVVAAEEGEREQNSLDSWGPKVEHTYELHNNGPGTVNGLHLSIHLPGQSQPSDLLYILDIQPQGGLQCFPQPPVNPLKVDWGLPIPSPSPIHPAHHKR
Integrin alpha-IIb/beta-3, sequence (P08514 891-1039 limits assumed): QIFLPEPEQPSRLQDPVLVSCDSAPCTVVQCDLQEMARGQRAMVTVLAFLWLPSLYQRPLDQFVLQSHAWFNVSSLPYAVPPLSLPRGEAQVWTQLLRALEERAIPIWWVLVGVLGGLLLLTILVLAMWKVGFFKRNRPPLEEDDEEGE

As a reminder, the IC50 is the concentration needed to halve the response being measured. A lower IC50 goes with greater potency. In assay [1], `CCCCS(=O)(=O)N[C@H](CCC(=O)O)C(=O)N1CCC(CCCC2CCNCC2)CC1` registered an IC50 of 130 nM.
As for `O=C(O)[C@H](CCC(=O)N1CCC(CCCC2CCNCC2)CC1)NS(=O)(=O)c1ccc2ccccc2c1`, the values for the IC50 in assay [1] and in assay [2] were 40 nM and 10 nM, respectively.
For `CCCc1ccc(S(=O)(=O)N[C@@H](CCC(=O)N2CCC(CCCC3CCNCC3)CC2)C(=O)O)cc1`, the IC50 in assay [1] was 10 nM; in assay [2] it was 20 nM.
In turn, `CCCCS(=O)(=O)N[C@@H](CCC(=O)O)C(=O)N1CCC(CCCC2CCNCC2)CC1` showed an IC50 in assay [1] of over 25000 nM.
Turning to `CCCCCN[C@@H](CCC(=O)N1CCC(CCCC2CCNCC2)CC1)C(=O)O`, in assay [1], the IC50 turned out to be 8400 nM.
In turn, `CCCCC(=O)N[C@@H](CCC(=O)N1CCC(CCCC2CCNCC2)CC1)C(=O)O` registered an IC50 in assay [1] of 250 nM.
Compound `CCCCS(=O)(=O)NC(CC(=O)O)CC(=O)N1CCC(CCCC2CCNCC2)CC1` (centres undefined) came in with a 50% inhibitory concentration (IC50) in assay [1] of 950 nM.
In turn, `O=C(O)CCCCC(=O)N1CCC(CCCC2CCNCC2)CC1` registered an IC50 in assay [1] of 6700 nM.
Take `CCCCS(=O)(=O)N[C@@H](CCC(=O)N1CCC(CCCC2CCNCC2)CC1)C(=O)O`: the results for the half-maximal inhibitory concentration (IC50) in assay [1] and in assay [2] were 110 nM and 70 nM, respectively.
In the case of `O=C(O)CCCC(=O)N1CCC(CCCC2CCNCC2)CC1`, the IC50 in assay [1] was 3000 nM.
`O=C(O)[C@H](CCC(=O)N1CCC(CCCC2CCNCC2)CC1)NS(=O)(=O)c1ccccc1` showed an IC50 in assay [1] of 30 nM.
Take `CCCCCCCCS(=O)(=O)N[C@@H](CCC(=O)N1CCC(CCCC2CCNCC2)CC1)C(=O)O`: the IC50 in assay [1] is 70 nM; in assay [2], 130 nM.
Take `CCCCS(=O)(=O)N[C@H](CCC(=O)N1CCC(CCCC2CCNCC2)CC1)C(=O)O`: the IC50 in assay [1] is over 25000 nM.
`O=C(O)CCC(=O)N1CCC(CCCC2CCNCC2)CC1` registered an IC50 in assay [1] of over 25000 nM.
For the compound `O=C(O)[C@H](CCC(=O)N1CCC(CCCC2CCNCC2)CC1)NS(=O)(=O)c1cccc2ccccc12`, the IC50 came to 40 nM in assay [1] and 10 nM in assay [2].
On the same counts, the results for `O=C(O)[C@H](CCC(=O)N1CCC(CCCC2CCNCC2)CC1)NS(=O)(=O)Cc1ccccc1` are 20 nM and 20 nM.
For `O=C(O)[C@H](CCC(=O)N1CCC(CCCC2CCNCC2)CC1)NS(=O)(=O)c1ccc(-c2ccccc2)cc1`, the IC50 in assay [1] and in assay [2] was 30 nM each time.
